Results: patent US6124334A, “Hetero-aromatic ring substituted phenyloxazolidinone antimicrobials” (Pharmacia & Upjohn Company, priority 1998, dated 2000)
Converted amounts (≈) assume the structure as drawn. “And” between values parts separate entries of the source, which are not always exact repeats. Equal entries are not always repeated.

Key:
[1] = test system: S. aureus, UC ®9213; experiment: In vivo Murine Assay procedure, ED50 (survival of infected mice); set-up: species or system Staphylococcus aureus; female mice
Description: Antimicrobial activity was tested in vivo using the Murine Assay procedure. Groups of female mice (six mice of 18-20 grams each) were injected intraperitoneally with bacteria which were thawed just prior to use and suspended in brain heart infusion with 4% brewers yeast UC9213 (Staphylococcus aureus) or brain heart infusion (Streptococcus species). Antibiotic treatment at six dose levels per drug was administered one hour and five hours after infection by either oral intubation or subcutaneous ("subcut.") routes. Survival was observed daily for six days. ED50 values based on mortality ratios were calculated using probit analysis. The subject compounds were compared against a well-known antimicrobial (Vancomycin) as a control.

[2] = test system: S. pneumoniae, UC ®9912; experiment: In vitro MIC by agar dilution, S. pneumoniae; assay type: cell-based; settings: Streptococcus pneumoniae, UC9912, read-out: In vitro Activities: Minimum Inhibitory Concentrations, S. pneumoniae, UC 9912
Excerpt: The oxazolidinone antibacterial agents of this invention have useful activity against a variety of organisms. The in vitro activity of compounds of this invention can be assessed by standard testing procedures such as the determination of minimum inhibitory concentration (MIC) by agar dilution as desribed in "Methods for Dilution Antimicrobial Susceptibility Tests for Bacteria That Grow Aerobically" (MFT) published January 1983 by the National Committee for Clinical Laboratory Standards, 771 East Lancaster Avenue, Villanova, Pa. 19084, USA. The activity of selected compounds of this invention against Staphylococcus aureus and Streptococcus pneumoniae are shown in Table 1.

For `CN[C@H](CC(C)C)C(=O)N[C@H]1C(=O)N[C@@H](CC(N)=O)C(=O)N[C@H]2C(=O)N[C@H]3C(=O)N[C@H](C(=O)N[C@H](C(=O)O)c4cc(O)cc(O)c4-c4cc3ccc4O)[C@H](O)c3ccc(c(Cl)c3)Oc3cc2cc(c3O[C@@H]2O[C@H](CO)[C@@H](O)[C@H](O)[C@H]2O[C@H]2C[C@](C)(N)[C@H](O)[C@H](C)O2)Oc2ccc(cc2Cl)[C@H]1O` [Vancomycin], the ED50 ([1]; Staphylococcus aureus, UC9213, 144 h, read-out: Control, ED50) was 2.2 mg/kg, the “Control, ED50” value ([1]; vancomycin control run beside the Example of the same line, mice infected i.p. with S. aureus UC 9213, treatment 1 h and 5 h after infection, oral or subcutaneous, 8640 min) was 2.4 mg/kg and 2.0 mg/kg and 1.2 mg/kg and the MIC [2] was 0.5 µg/mL (≈ 0.345 µM).
